“Also recorded” adds a separate entry of the source.
Tests used:
HepG2 cells [1] = assay: HepG2 cell uptake assay; format: in vitro ADME; conditions: 10 μM, 2 hours
Procedure: The HepG2 cells maintained in DMEM (containing 1 g/L glucose, 10% fetal bovine serum and 1% penicillin/streptomycin) were seeded in a 12-well plate (a final density of 5×10^5/well) for cell uptake assay and 96-well plate for cytotoxicity assay (a final density of 5×10^4/well). The plate was incubated at 37° C. for 24 h.
The cells in 12-well plate were treated with CDD-1713 or CDD-1976 (final concentration: 10 μM). The plate was incubated at 37° C. for another 2 hr. The medium in the plate was decanted and the cells were rinsed with 1 mL of 1×DPBS for three times. 0.5 mL of 0.25% Trypsin was added into each well and incubated for 3.5 min (at 37° C.). 1 mL of complete medium was added into each well to quench the reaction. After spinning at 350×g for 5 min, the cell pellet was reconstituted in MeOH/H2O (v/v 1/1) and CDD-1713 or CDD-1976 was extracted from 100 μL of the resulting mixture with 100 μL of ice-cold methanol. The mixtures were centrifuged at rcf 15,000 for 15 min. Three μL of the supernatant was analyzed by UHPLC-Q Exactive Orbitrap MS (Thermo Fisher Scientific, USA) equipped with 50 mm×4.6 mm column (XDB C-18, Agilent Technologies, USA). The column temperature was set at 40° C. Ultra-pure nitrogen was applied as the sheath (45 arbitrary unit), auxiliary (10 arbitrary unit), sweep (1.0 arbitrary unit) and the collision gas. […]

[2] = target: SARS-CoV-2 main protease (M^pro) (Severe acute respiratory syndrome coronavirus 2, UniProt P0DTD1); assay: Protein thermal shift stability assay (SYPRO Orange); format: binding
SARS-COV-2 M^pro-His6 = SARS-COV-2 M^pro-His6 (Severe acute respiratory syndrome coronavirus 2, UniProt P0DTD1); assay: biochemical; format: biochemical; conditions: 25 nM enzyme, 15 μM fluorescent peptide, Morrison equation; Inactive = less than 50% inhibition at 25 μM compound; read-out: M^pro-His Ki
[3] = target: SARS-COV-2 M^pro (authentic N- and C-termini) (Severe acute respiratory syndrome coronavirus 2, UniProt P0DTD1); assay: biochemical; format: biochemical
HepG2 cells [4] = assay: HepG2 cytotoxicity assay (XTT); conditions: 100 μM
[5] = Metabolic stability in human liver microsomes; format: in vitro ADME
Procedure: (§1) The samples were collected at specific time-points 0, 30, and 60 min in duplicate. The reactions were terminated by adding an equivalent volume of ice-cold methanol and vortexed. […] Three μL of the supernatant was analyzed by UHPLC-Q Exactive Orbitrap MS (Thermo Fisher Scientific, USA) equipped with 50 mm×4.6 mm column (XDB C-18, Agilent Technologies, USA). The column temperature was maintained at 40° C. The flow rate was at 0.3 mL/min with a 30% mobile phase (acetonitrile containing 0.1% formic acid). Q Exactive MS was operated in positive mode with electrospray ionization. Ultra-pure nitrogen was applied as the sheath (45 arbitrary unit), auxiliary (10 arbitrary unit), sweep (1.0 arbitrary unit) and the collision gas. […] MS data were acquired from 80 to 1,200 Da in profile mode.

[6] = Plasma stability assay, mouse plasma; format: in vitro ADME; conditions: 10 μM, 37° C., after 2 h incubation
Procedure: (§2) Compound CDD-1713 and CDD-1976 were incubated in human and mouse plasma respectively at a concentration of 10 μM in duplicate (n=2) at 37° C. At time-points of 0, 30, 60 and 120 min, 15 μL of sample were taken out and the reactions terminated by adding 75 μL of ice-cold methanol. The reaction mixtures were then vortexed for 30 sec and centrifuged at rcf 15,000 for 15 min. Following centrifugation, 3 μL of the supernatant was analyzed using UHPLC-Q Exactive Orbitrap MS. The percentage of test compound remaining at the individual time points relative to the 0 min sample was then determined.

[7] = Metabolic stability in mouse liver microsomes; format: in vitro ADME; conditions: 0.5 mg protein/mL, 2.0 μM compound, 1.0 mM NADPH
Procedure: as §1

[8] = Plasma stability assay, human plasma; format: in vitro ADME; conditions: 10 μM, 37° C., after 2 h incubation
Procedure: as §2

[9] = system: SARS-COV-2 (USA_WA1/2020 isolate) in VERO E6 cells; assay: Real-Time Cell Analysis (RTCA) assay of SARS-COV-2 replication; format: cell-based

For CN(C)C(=O)COc1ccc(-c2cccc3[nH]ncc23)cc1C=O [CDD-1976], the “cell permeability in HepG2 uptake assay (in words)” value (HepG2 cells [1]) was “moderate cell permeability”, the “stabilization of M^pro in thermal shift assay (in words)” value [2] was “stabilized; also recorded: concentration-dependent stabilization; also recorded: most pronounced temperature shift” and the Ki (SARS-COV-2 M^pro-His6) was 37 ± 4 nM. The “M^pro inhibition (in words)” value [3] was “better inhibition compared to CDD-1713”, the Ki ([3]; 25 nM enzyme, 15 μM fluorescent peptide, Morrison equation, Inactive = less than 50% inhibition at 25 μM compound, read-out: M^pro Ki) was 42 ± 5 nM and the “cytotoxicity in HepG2 cells (in words)” value (HepG2 cells [4]) was “no obvious cytotoxicity”. For the same molecule, the “HLM t1/2 (half-life)” value ([5]; 0.5 mg protein/mL, 2.0 μM compound, 1.0 mM NADPH) was 41.4, the “metabolic stability in human liver microsomes (in words)” value ([5]; human, microsomes) was “more stable” and the “compound remaining in mouse plasma” value [6] was 80%. For the same molecule, the “MLM t1/2 (half-life)” value [7] was 10.2, the “compound remaining in human plasma” value [8] was 80% and the IC50 ([9]; Severe acute respiratory syndrome coronavirus 2, Vero C1008, 75 h, read-out: IC50, inhibition of SARS-COV-2 induced cell death (RTCA)) was 2500 nM. For the same molecule, the “prevention of SARS-COV-2 induced cell death (in words)” value ([9]; VERO E6 cells, 75 h) was “reduced cell death in a dose-dependent manner”.

Source: patent US20250276955A1, “CORONAVIRUS MAIN PROTEASE INHIBITORS AND METHODS USING SAME” (Baylor College of Medicine, priority 2021, published 2025)
